From US20230136702A1, “Inhibitors of Human Herpesviruses” (The Governors of the University of Alberta, priority 2020, published 2023)
Counter-ions that a name gives are not always drawn.

Experiments:
[1] = system: HCMV US3-6-EGFP-HCMV-AD169 strain; assay: In vitro inhibitory (antiviral) activity against HCMV, GFP reporter in MRC5 cells; type: cell-based, Human cytomegalovirus (HCMV); settings: Human betaherpesvirus 5, AD169, MRC5, 96 h, read-out: HCMV Antiviral EC50 range
Protocol: (§1) Exemplary compounds (e.g., as described herein) were prepared as 20 mM stock solutions with DMSO. Reference compound was ganciclovir (Sigma). Compounds were tested at 8 concentrations, 3-fold serial dilutions, in duplicate for EC50 and CC50 determinations. The highest testing concentrations of the exemplary compounds and reference compound were 40 μM and 100 μM, respectively. The final concentration of DMSO in the cell culture was 0.5%.
HCMV US3-6-EGFP-HCMV-AD169 strain was obtained from Institute Pasteur of Shanghai, CAS. The virus contains GFP as a reporter of the viral replication.
(§2) MRC5 cells (ATCC CCL-171) was obtained from the ATCC and maintained in the EMEM (Sigma) supplemented with 10% FBS (HyClone), 1% L-glutamine (Gibco), 1% NEAA (Gibco), and 1% PS (Hyclone). Reagent:
In 96-well plates, MRC5 cells were seeded at 20,000 cells per well and cultured at 37° C. and 5% C02 overnight. Next day, compounds (8 concentrations, 3-fold dilutions, in duplicate) and US3-6-EGFP-HCMV-AD169 (MOI=0.1) were added to the cells. The resulting cultures were incubated at 37° C. and 5% C02 for 4 days. Fluorescence intensity was determined by Acumen Cellista (TTP LabTech). The antiviral activity of each compound was calculated based on the inhibition of expression of GFP at each concentration normalized by the cell control (cells without virus infection or compound treatment).
(§3) Antiviral activity and cytotoxicity of the compounds were expressed as % Inhibition and % Viability, respectively, and calculated with the formulas below:
Inhibition (%)=100−(Raw dataCPD−AverageCC)/(AverageVC−AverageCC)*100
(§4) Raw dataCPD indicates the values of the compound-treated wells; AverageVC, AverageCC and AverageMC indicate the average values of the virus control (cells infected with virus, without compound treatment), cell control and medium control wells, respectively.
(§5) EC50 and CC50 values were calculated using the GraphPad Prism software.

[2] = molecular target: T1, hERG potassium channel (Homo sapiens, UniProt Q12809); assay: Inhibition of hERG potassium channel, automated patch clamp (SyncroPatch 384PE) in CHO cells; type: cell-based; settings: CHO cells stably expressing hERG, room temperature, 0.494-40.00 μM; read-out: CHO-hERG Activity Range
T1 construct: host or cells: CHO cells stably expressing hERG
T1 sequence (Q12809 whole entry): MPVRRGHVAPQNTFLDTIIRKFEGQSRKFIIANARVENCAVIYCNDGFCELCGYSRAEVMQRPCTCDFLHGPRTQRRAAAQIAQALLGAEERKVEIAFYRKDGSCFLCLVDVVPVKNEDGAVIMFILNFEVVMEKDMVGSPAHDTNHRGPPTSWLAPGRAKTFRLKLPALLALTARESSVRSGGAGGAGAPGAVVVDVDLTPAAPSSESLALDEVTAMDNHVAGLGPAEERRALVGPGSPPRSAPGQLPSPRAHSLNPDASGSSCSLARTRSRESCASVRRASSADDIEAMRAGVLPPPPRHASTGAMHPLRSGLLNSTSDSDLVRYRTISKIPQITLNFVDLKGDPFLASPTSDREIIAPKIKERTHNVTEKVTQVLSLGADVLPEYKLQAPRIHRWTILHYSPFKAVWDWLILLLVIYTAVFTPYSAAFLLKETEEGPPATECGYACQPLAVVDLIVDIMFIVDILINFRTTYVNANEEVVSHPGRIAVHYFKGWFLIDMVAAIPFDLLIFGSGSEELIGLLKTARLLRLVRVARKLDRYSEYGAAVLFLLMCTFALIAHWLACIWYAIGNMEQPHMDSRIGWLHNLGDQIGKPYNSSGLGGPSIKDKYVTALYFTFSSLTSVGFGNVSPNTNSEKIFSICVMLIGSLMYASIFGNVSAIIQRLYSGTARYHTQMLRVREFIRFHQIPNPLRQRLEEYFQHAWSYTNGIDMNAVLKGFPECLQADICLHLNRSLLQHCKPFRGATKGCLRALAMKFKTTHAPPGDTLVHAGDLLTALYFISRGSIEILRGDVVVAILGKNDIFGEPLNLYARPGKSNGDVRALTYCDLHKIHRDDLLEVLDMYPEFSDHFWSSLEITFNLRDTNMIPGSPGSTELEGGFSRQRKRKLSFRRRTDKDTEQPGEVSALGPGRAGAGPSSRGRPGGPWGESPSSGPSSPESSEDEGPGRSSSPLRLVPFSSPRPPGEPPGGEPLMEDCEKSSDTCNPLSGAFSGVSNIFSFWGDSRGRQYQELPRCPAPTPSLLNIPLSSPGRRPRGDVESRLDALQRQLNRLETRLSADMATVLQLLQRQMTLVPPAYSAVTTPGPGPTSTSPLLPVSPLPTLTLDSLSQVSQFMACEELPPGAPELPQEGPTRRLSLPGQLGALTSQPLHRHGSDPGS
Protocol: This automated patch clamp method (SyncroPatch 384PE) CHO cells stably expressing hERG potassium channels from Sophion Biosciences were used for this test.
The cells were cultured in a humidified and air-controlled (5% C02) incubator at 37° C.
The CHO cells which were at least two days after plating and more than 75% confluent would be used for experiments. Before testing, cells were harvested using TrypLE and resuspended in the physiological solution at the room temperature.
For the electrophysiological recordings the following solutions were used (Table 5). The physiological solution and external solution were prepared at least one month. The intracellular solution was prepared in batches aliquoted, and stored at 4° C. until used.
Exemplary compounds (e.g., as described herein) were dissolved in 100% DMSO to obtain stock solutions for different test concentrations. Then the stock solutions were further diluted into external solution to achieve final concentrations for testing. Visual check for precipitation was conducted before testing. Final DMSO concentration in external solution was not more than 0.30% for the compounds.
From this holding potential of −80 mV, the voltage was first stepped to −50 mV for 80 ms for leak subtraction, and then stepped to +20 mV for 4800 ms to open hERG channels. After that, the voltage was stepped back down to −50 mV for 5000 ms, causing a “rebound” or tail current, which was measured and collected for data analysis. Finally, the voltage was stepped back to the holding potential (−80 mV, 1000 ms). This voltage command protocol was repeated every 20000 msec. This command protocol was performed continuously during the test (vehicle control and test compound).
hERG SyncroPatch assay was conducted at room temperature. The Setup, Prime Chip, Catch and Seal Cells, Amplifier Settings, Voltage and Application Protocols were established with Biomek Software (Nanion).
One addition of 40 μL of the vehicle was applied, followed by 300s for a baseline period. Then the doses of exemplary test compounds were added with 40 μL. The exposure of test compound at each concentration was no less than 300s. […] Five concentrations (0.494 μM, 1.48 μM, 4.44 μM, 13.33 μM and 40.00 μM) were tested for each compound. Minimum 2 replicates per concentration were obtained.
Within each well recording, percent of control values were calculated for each test compound concentration current response based on peak current in presence of reference control (current response/peak current)×100%. The Dose-Response curves were fit to the standard Hill equation as shown below:
Ipost cpd/Ipre cpd=Bottom+(Top−Bottom)/(1+10^((Log IC50−X)*HillSlope))
Where X is the logarithm of concentration, Ipost cpd/Ipre cpd is the normalized peak current amplitude, Top is 1 and Bottom is equal to 0.
Curve-fitting and IC50 calculations were performed by GraphPad Prism 5.0. If the inhibition obtained at the lowest concentration tested was over 50%, or at the highest concentration tested was less than 50%, we reported the IC50 as less than lowest concentration, or higher than highest concentration, respectively.

[3] = Cytotoxicity in MRC5 cells without virus infection (CCK8); type: cell-based; settings: human
Protocol: as §1, §2
Cytotoxicity of the compounds was assessed under the same conditions, but without virus infection, in parallel. Cell viability was measured with CCK8 following the manufacturer's manual. CC50 values were then calculated based on cytotoxicity at the test concentrations normalized by the medium control (medium only).
as §3
Viability (%)=(Raw dataCPD−AverageMC)/(AverageCC−AverageMC)*100
as §4, §5

[4] = molecular target: T2, HCMV DNA polymerase (UL54) (Human cytomegalovirus, UniProt P08546); assay: HCMV DNA polymerase enzyme inhibition assay (ProFoldin, fluorescence); type: biochemical; settings: 37° C., duplicate, max 40 μM
T2 construct: 6His (C); made in house; host or cells: Sf9 insect cells (baculovirus, pFastBac)
T2 sequence (P08546 whole entry): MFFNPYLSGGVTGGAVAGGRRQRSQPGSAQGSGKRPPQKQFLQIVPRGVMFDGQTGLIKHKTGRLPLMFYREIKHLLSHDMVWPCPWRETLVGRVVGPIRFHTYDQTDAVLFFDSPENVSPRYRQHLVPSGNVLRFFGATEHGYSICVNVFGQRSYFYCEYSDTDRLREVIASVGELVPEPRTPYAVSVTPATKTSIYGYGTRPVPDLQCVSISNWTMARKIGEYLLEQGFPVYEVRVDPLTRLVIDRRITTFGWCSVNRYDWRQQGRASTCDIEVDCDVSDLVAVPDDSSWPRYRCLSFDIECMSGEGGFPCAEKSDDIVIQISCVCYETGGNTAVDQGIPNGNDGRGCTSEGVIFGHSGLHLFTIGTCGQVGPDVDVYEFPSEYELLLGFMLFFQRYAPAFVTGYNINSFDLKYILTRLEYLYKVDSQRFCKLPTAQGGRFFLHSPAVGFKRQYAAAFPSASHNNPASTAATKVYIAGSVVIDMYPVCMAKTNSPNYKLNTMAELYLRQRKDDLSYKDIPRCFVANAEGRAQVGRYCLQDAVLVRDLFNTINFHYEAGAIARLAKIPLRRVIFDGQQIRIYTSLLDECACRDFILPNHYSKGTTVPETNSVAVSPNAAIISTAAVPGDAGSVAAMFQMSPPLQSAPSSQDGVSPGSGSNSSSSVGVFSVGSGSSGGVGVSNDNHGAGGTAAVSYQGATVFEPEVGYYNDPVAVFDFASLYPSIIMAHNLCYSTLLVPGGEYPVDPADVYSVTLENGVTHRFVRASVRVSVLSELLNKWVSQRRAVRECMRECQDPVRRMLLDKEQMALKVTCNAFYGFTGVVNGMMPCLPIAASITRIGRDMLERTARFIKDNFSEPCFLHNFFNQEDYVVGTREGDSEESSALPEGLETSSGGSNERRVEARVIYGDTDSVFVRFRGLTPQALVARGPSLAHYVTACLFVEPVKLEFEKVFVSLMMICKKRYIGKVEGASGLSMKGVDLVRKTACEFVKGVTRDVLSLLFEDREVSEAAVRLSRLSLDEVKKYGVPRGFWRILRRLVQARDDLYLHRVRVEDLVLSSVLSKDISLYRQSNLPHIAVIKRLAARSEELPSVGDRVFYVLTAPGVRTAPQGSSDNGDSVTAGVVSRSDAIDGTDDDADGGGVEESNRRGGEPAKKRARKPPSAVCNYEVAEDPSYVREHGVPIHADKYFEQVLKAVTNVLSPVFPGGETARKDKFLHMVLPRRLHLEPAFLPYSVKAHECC
Protocol: The HCMV DNA polymerase assay was developed by ProFoldin. The assay detects the formation of DNA from the DNA polymerase reaction in the presence of a DNA template, dATP and dGTP. The formation of the DNA is detected by using a fluorescence method. The fluorescence intensity increases when DNA is generated by the enzyme reaction.
A time-course experiment was performed aside the enzyme inhibition assay to ensure the assay was sensitive to the enzyme inhibition. The wells for the time-course experiment contained 1 μL of DMSO and the same reaction mixture as that in the enzyme inhibition assay. The time-course data varied between plates. The reactions were stopped when the fluorescence reached a value of about 3700 for each plate.
Exemplary solid compounds (e.g., as described herein) were dissolved in DMSO to make […] stock solutions. PFA (phosphonoformic acid or phosphonomethanoic acid) was used as a positive control. The compound mother plates were prepared at 50× concentrated compound concentrations with a 2-fold serial dilution. All the exemplary compounds except PFA were diluted in DMSO. PFA was diluted in water. The maximum compound concentration was 2 mM that gave the final concentration of 40 μM in the assay. One microliter of the 50× stock solutions was transferred into the assay plates. Three copies of assay plates were prepared, two for HCMV DNA polymerase assay and one for compound background control.
The following is the protocol for enzyme inhibition performed at 37° C.:
1. Prepared a premix composed of 35347 μL of H2O, 5220 μL of 10× assay buffer and 149 μL of 350×HCMV DNA polymerase.
2. Added 39 μL of the premix into the wells with 1 μL of the compound. Incubated the mixture for at least 5 min.
3. Added 10 μL of 5×dNTP (0.1 mM), 5×DNA template solutions into each well and incubated the solution until the fluorescence value reached a value about 3700 for the DMSO-only control wells.
4. Added 50 μL of the 1× dye into the wells.
5. Read the fluorescence at emission wavelength of 535 nm and excitation wavelength of 485 nm.
For the compound background reading, added 99 μL of water in the wells with 1 μL of compounds and read the fluorescence. […] The 0% inhibition value F0 was from the wells with DMSO (no inhibitor).
The background values were subtracted from the fluorescence reading to get the net fluorescence values. The net fluorescence values were used for calculation of the percentage inhibition.
The assay was performed in duplicate for the test article at […], 1.25, 0.625, 0.313, 0.156 and 0.078 μM. The IC50 curves were obtained by fitting the percentage inhibition values with the compound concentrations using Prism GraphPad software.

Row | Compound | EC50 [1] [nM] | IC50 [2] [nM] | CC50 at 4 days [3] [nM] | IC50 [4] [nM]
1 | CC1(C)CN(C(=O)Cn2c(=O)c(C(=O)NCc3ccc(Cl)cc3)cc3nc(N4CCN(CC(=O)O)C4=O)cnc32)C1 [Compound 5, [3-(7-{[(4-chlorophenyl)methyl]carbamoyl}-5-[2-(3,3-dimethylazetidin-1-yl)-2-oxoethyl]-6-oxo-5,6-dihydropyrido[2,3-b]pyrazin-2-yl)-2-oxoimidazolidin-1-yl]acetic acid] | > 1000 | > 10000 | > 40000 | –
2 | CC1(C)CN(C(=O)Cn2c(=O)c(C(=O)NCc3ccc(Cl)cc3)cc3cc(N4CCN(CC(=O)O)C4=O)cnc32)C1 [Compound 7, [3-(6-{[(4-chlorophenyl)methyl]carbamoyl}-8-[2-(3,3-dimethylazetidin-1-yl)-2-oxoethyl]-7-oxo-7,8-dihydro-1,8-naphthyridin-3-yl)-2-oxoimidazolidin-1-yl]acetic acid] | > 1000 | > 10000 | > 40000 | –
3 | CN1CCN(c2cnc3c(cc(C(=O)NCc4ccc(F)cc4)c(=O)n3CC(=O)N3CC4(CC4)C3)n2)C1=O [Compound 10, 5-[2-(5-azaspiro[2.3]hexan-5-yl)-2-oxoethyl]-N-[(4-fluorophenyl)methyl]-2-(3-methyl-2-oxoimidazolidin-1-yl)-6-oxo-5,6-dihydropyrido[2,3-b]pyrazine-7-carboxamide] | – | – | – | < 1000
4 | CN1CCN(c2cnc3c(cc(C(=O)NCc4ccc(C#N)cc4)c(=O)n3CC(=O)N3CC4(CC4)C3)n2)C1=O [Compound 11, 5-[2-(5-azaspiro[2.3]hexan-5-yl)-2-oxoethyl]-N-[(4-cyanophenyl)methyl]-2-(3-methyl-2-oxoimidazolidin-1-yl)-6-oxo-5,6-dihydropyrido[2,3-b]pyrazine-7-carboxamide] | – | – | – | < 1000
5 | CCOC(=O)CCN1CCN(c2cnc3c(cc(C(=O)NCc4ccc(Cl)cc4)c(=O)n3CC(=O)N3CC(C)(F)C3)n2)C1=O [Compound 17, ethyl 3-[3-(7-{[(4-chlorophenyl)methyl]carbamoyl}-5-[2-(3-fluoro-3-methylazetidin-1-yl)-2-oxoethyl]-6-oxo-5,6-dihydropyrido[2,3-b]pyrazin-2-yl)-2-oxoimidazolidin-1-yl]propanoate] | – | – | – | < 1000
6 | CC1(F)CN(C(=O)Cn2c(=O)c(C(=O)NCc3ccc(Cl)cc3)cc3nc(N4CCN(CCC(=O)O)C4=O)cnc32)C1 [Compound 18, 3-[3-(7-{[(4-chlorophenyl)methyl]carbamoyl}-5-[2-(3-fluoro-3-methylazetidin-1-yl)-2-oxoethyl]-6-oxo-5,6-dihydropyrido[2,3-b]pyrazin-2-yl)-2-oxoimidazolidin-1-yl]propanoic acid] | – | > 10000 | > 40000 | < 1000
7 | CNCCN1CCN(c2cnc3c(cc(C(=O)NCc4ccc(Cl)cc4)c(=O)n3CC(=O)N3CC(C)(F)C3)n2)C1=O [Compound 23, N-[(4-chlorophenyl)methyl]-5-[2-(3-fluoro-3-methylazetidin-1-yl)-2-oxoethyl]-2-{3-[2-(methylamino)ethyl]-2-oxoimidazolidin-1-yl}-6-oxo-5,6-dihydropyrido[2,3-b]pyrazine-7-carboxamide-hydrogen chloride] | – | – | – | < 1000
8 | CN(CCN1CCN(c2cnc3c(cc(C(=O)NCc4ccc(Cl)cc4)c(=O)n3CC(=O)N3CC(C)(F)C3)n2)C1=O)S(C)(=O)=O [Compound 24, N-[(4-chlorophenyl)methyl]-5-[2-(3-fluoro-3-methylazetidin-1-yl)-2-oxoethyl]-2-(3-{2-[(methanesulfonyl)(methyl)amino]ethyl}-2-oxoimidazolidin-1-yl)-6-oxo-5,6-dihydropyrido[2,3-b]pyrazine-7-carboxamide] | – | – | – | > 1000
9 | CC1(F)CN(C(=O)Cn2c(=O)c(C(=O)NCc3ccc(Cl)cc3)cc3nc(N4CCN(CCNC(=O)CN)C4=O)cnc32)C1 [Compound 38, N-[(4-chlorophenyl)methyl]-5-[2-(3-fluoro-3-methylazetidin-1-yl)-2-oxoethyl]-2-{3-[2-(glycylamino)ethyl]-2-oxoimidazolidin-1-yl}-6-oxo-5,6-dihydropyrido[2,3-b]pyrazine-7-carboxamide-hydrochloride salt] | – | – | – | < 1000
10 | CC1(F)CN(C(=O)Cn2c(=O)c(C(=O)NCc3ccc(Cl)cc3)cc3nc(N4CCN(CCN5CCOCC5)C4=O)cnc32)C1 [Compound 39, N-[(4-chlorophenyl)methyl]-5-[2-(3-fluoro-3-methylazetidin-1-yl)-2-oxoethyl]-2-{3-[2-(morpholin-4-yl)ethyl]-2-oxoimidazolidin-1-yl}-6-oxo-5,6-dihydropyrido[2,3-b]pyrazine-7-carboxamide] | – | – | – | > 1000
